Test results published in patent US20250296953A1, “3,4-THIAZOLO-STEROIDS AND METHODS OF MAKING AND USING THE SAME” (Arkansas State University - Jonesboro, priority 2018, published 2025).

Experiments:
[1] = test system: 60 different human tumor cell lines; assay: NCI Development Therapeutics Program 60 cell line screen, one dose; type: cell-based
[2] = test system: SK-MEL-25; assay: Melanoma cytotoxicity assay (resazurin); type: cell-based; settings: SK-MEL-25 melanoma cells, 24 hours with compound, resazurin; concentration not given
In short: (§1)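 Viability read by resazurin fluorescence (ex 544, em 590 nm) after 6 h, following 24 h compound exposure of cells plated 24 h earlier (~4000/well). Triplicate means, minus medium blank, divided by DMSO control; IC50 derived from sigmoidal dose-response curves.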

[3] = test system: SK-MEL-28; assay: Melanoma cytotoxicity assay (resazurin); type: cell-based; settings: SK-MEL-28 melanoma cells, 24 hours with compound, resazurin; concentration not given
In short: as §1

[4] = test system: HCT-15 (Colon Cancer); assay: NCI 60 one dose screen; type: cell-based, human
[5] = test system: RPMI-8226; assay: NCI 60 five dose screen
[6] = test system: SR; assay: NCI 60 five dose screen

## C[C@]12CCc3sc(NCCc4ccccc4)nc3C1=CC[C@@H]1[C@@H]2CC[C@]2(C)C(=O)CC[C@@H]12 [IIa.2, (1S,2R,13R,14S,18S)-2,18-dimethyl-7-(2-phenylethylamino)-6-thia-8-azapentacyclo [11.7.0.02,10.05,9.014,18]icosa-5(9),7,10-trien-17-one]
[1]; Breast Cancer, BT-549
  Growth Percent: 60.37%
[1]; Breast Cancer, HS 578T
  Growth Percent: 75.51%
[1]; Breast Cancer, MCF7
  Growth Percent: 20.41%
[1]; Breast Cancer, MDA-MB-231/ATCC
  Growth Percent: 83.12%
[1]; Breast Cancer, MDA-MB-468
  Growth Percent: 32.92%
[1]; Breast Cancer, T-47D
  Growth Percent: 75.21%
[1]; CNS Cancer, SF-268
  Growth Percent: 83.93%
[1]; CNS Cancer, SNB-19
  Growth Percent: 80.20%
[1]; CNS Cancer, SNB-75
  Growth Percent: 85.55%
[1]; CNS Cancer, U251
  Growth Percent: 60.12%
[1]; Colon Cancer, COLO 205
  Growth Percent: 90.61%
[1]; Colon Cancer, HCC-2998
  Growth Percent: 105.58%
[1]; Colon Cancer, HCT-116
  Growth Percent: 21.16%
[1]; Colon Cancer, HT29
  Growth Percent: 34.29%
[1]; Colon Cancer, KM12
  Growth Percent: 74.67%
[1]; Colon Cancer, SW-620
  Growth Percent: 35.34%
[1]; Leukemia, CCRF-CEM
  Growth Percent: 8.44%
[1]; Leukemia, HL-60(TB)
  Growth Percent: 1.45%
[1]; Leukemia, K-562
  Growth Percent: 5.14%
[1]; Leukemia, MOLT-4
  Growth Percent: 4.71%
[1]; Leukemia, RPMI-8226
  Growth Percent: −5.28%
[1]; Leukemia, SR
  Growth Percent: 0.92%
[1]; Melanoma, LOX IMVI
  Growth Percent: 70.22%
[1]; Melanoma, M14
  Growth Percent: 85.36%
[1]; Melanoma, MALME-3M
  Growth Percent: 73.32%
[1]; Melanoma, MDA-MB-435
  Growth Percent: 58.12%
[1]; Melanoma, SK-MEL-2
  Growth Percent: 92.09%
[1]; Melanoma, SK-MEL-5
  Growth Percent: 65.96%
[1]; Melanoma, SK-MEL-28
  Growth Percent: 83.31%
[1]; Melanoma, UACC-62
  Growth Percent: 75.59%
[1]; Melanoma, UACC-257
  Growth Percent: 87.36%
[1]; Non-small Cell Lung Cancer, A549/ATCC
  Growth Percent: 87.76%
[1]; Non-small Cell Lung Cancer, EKVX
  Growth Percent: 92.45%
[1]; Non-small Cell Lung Cancer, HOP-62
  Growth Percent: 101.67%
[1]; Non-small Cell Lung Cancer, HOP-92
  Growth Percent: 66.42%
[1]; Non-small Cell Lung Cancer, NCI-H23
  Growth Percent: 66.61%
[1]; Non-small Cell Lung Cancer, NCI-H226
  Growth Percent: 84.07%
[1]; Non-small Cell Lung Cancer, NCI-H322M
  Growth Percent: 91.89%
[1]; Non-small Cell Lung Cancer, NCI-H460
  Growth Percent: 72.80%
[1]; Ovarian Cancer, IGROV1
  Growth Percent: 87.98%
[1]; Ovarian Cancer, NCI/ADR-RES
  Growth Percent: 70.16%
[1]; Ovarian Cancer, OVCAR-3
  Growth Percent: 6.41%
[1]; Ovarian Cancer, OVCAR-4
  Growth Percent: 74.22%
[1]; Ovarian Cancer, OVCAR-5
  Growth Percent: 100.34%
[1]; Ovarian Cancer, OVCAR-8
  Growth Percent: 72.09%
[1]; Ovarian Cancer, SK-OV-3
  Growth Percent: 111.53%
[1]; Prostate Cancer, DU-145
  Growth Percent: 33.94%
[1]; Prostate Cancer, PC-3
  Growth Percent: 38.82%
[1]; Renal Cancer, 786-0
  Growth Percent: 4.36%
[1]; Renal Cancer, A498
  Growth Percent: 86.92%
[1]; Renal Cancer, ACHN
  Growth Percent: 73.78%
[1]; Renal Cancer, CAKI-1
  Growth Percent: 73.48%
[1]; Renal Cancer, RXF 393
  Growth Percent: 20.01%
[1]; Renal Cancer, SN12C
  Growth Percent: 68.49%
[1]; Renal Cancer, TK-10
  Growth Percent: 91.34%
[1]; Renal Cancer, UO-31
  Growth Percent: 50.44%
[2]
  SK-MEL-25 (% inhibition): 59%
[3]
  SK-MEL-28 (% inhibition): 79%
[4]
  Growth Percent: 22.48%
[5]; Homo sapiens, RPMI-8226
  GI50: 1.79 µM
[5]; Homo sapiens, RPMI-8226, read-out: LC50
  CC50: > 100 µM
[5]; RPMI-8226 (Leukemia), five dose
  TGI: 5.69E−6
[6]; Homo sapiens, SR
  GI50: 3.07 µM
[6]; Homo sapiens, SR, read-out: LC50
  CC50: > 100 µM
[6]; SR (Leukemia), five dose
  TGI: >1.00E−4
